From ChEMBL document CHEMBL5113527, “First-in-Class Hydrazide-Based HDAC6 Selective Inhibitor with Potent Oral Anti-Inflammatory Activity by Attenuating NLRP3 Inflammasome Activation” (J Med Chem, 2022)
The source made the active and inactive calls. The calls are words filed in the database; no cut-off is given here.

Key:
Histone deacetylase 4 = Histone deacetylase 4 (Homo sapiens, UniProt P56524); assay: Inhibition of recombinant HDAC4 (unknown origin) using Boc-Lys (trifluoroacetyl) AMC as substrate preincubated for 1 hr followed by substrate addition and measured after 2 hrs by fluorescence based microplate reader analysis
Histone deacetylase 5 = Histone deacetylase 5 (Homo sapiens, UniProt Q9UQL6); assay: Inhibition of recombinant HDAC5 (unknown origin) using Boc-Lys (trifluoroacetyl) AMC as substrate preincubated for 1 hr followed by substrate addition and measured after 2 hrs by fluorescence based microplate reader analysis
Histone deacetylase 8 = biological target: T1, Histone deacetylase 8 (Homo sapiens, UniProt Q9BY41); assay: Inhibition of recombinant HDAC8 (unknown origin) using Boc-Lys (trifluoroacetyl) AMC as substrate preincubated for 1 hr followed by substrate addition and measured after 2 hrs by fluorescence based microplate reader analysis
T1 sequence (Q9BY41 whole entry): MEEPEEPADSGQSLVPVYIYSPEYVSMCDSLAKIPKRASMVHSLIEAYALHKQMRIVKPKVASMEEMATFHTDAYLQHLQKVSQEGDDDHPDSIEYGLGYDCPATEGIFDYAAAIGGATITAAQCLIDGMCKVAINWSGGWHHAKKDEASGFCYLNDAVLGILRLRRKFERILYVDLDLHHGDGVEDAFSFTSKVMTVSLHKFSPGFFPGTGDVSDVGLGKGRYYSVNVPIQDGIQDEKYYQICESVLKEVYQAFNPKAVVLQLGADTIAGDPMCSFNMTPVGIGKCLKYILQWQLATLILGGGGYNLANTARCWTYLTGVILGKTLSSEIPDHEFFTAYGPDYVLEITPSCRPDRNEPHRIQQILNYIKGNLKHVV

Histone deacetylase 1 = Histone deacetylase 1 (Homo sapiens, UniProt Q13547); assay: Binding affinity to recombinant HDAC1 (unknown origin) assessed as inhibition constant using Boc-Lys(acetyl)-AMC as substrate preincubated for 1 hr followed by substrate addition and measured after 2 hrs by fluorescence based microplate reader analysis
[1] = biological target: T2, Protein deacetylase HDAC6 (Homo sapiens, UniProt Q9UBN7); assay: Inhibition of recombinant HDAC6 (unknown origin) using Boc-Lys(acetyl)-AMC as substrate preincubated for 0 min followed by substrate addition and measured after 2 hrs by fluorescence based microplate reader analysis
T2 sequence (Q9UBN7 whole entry): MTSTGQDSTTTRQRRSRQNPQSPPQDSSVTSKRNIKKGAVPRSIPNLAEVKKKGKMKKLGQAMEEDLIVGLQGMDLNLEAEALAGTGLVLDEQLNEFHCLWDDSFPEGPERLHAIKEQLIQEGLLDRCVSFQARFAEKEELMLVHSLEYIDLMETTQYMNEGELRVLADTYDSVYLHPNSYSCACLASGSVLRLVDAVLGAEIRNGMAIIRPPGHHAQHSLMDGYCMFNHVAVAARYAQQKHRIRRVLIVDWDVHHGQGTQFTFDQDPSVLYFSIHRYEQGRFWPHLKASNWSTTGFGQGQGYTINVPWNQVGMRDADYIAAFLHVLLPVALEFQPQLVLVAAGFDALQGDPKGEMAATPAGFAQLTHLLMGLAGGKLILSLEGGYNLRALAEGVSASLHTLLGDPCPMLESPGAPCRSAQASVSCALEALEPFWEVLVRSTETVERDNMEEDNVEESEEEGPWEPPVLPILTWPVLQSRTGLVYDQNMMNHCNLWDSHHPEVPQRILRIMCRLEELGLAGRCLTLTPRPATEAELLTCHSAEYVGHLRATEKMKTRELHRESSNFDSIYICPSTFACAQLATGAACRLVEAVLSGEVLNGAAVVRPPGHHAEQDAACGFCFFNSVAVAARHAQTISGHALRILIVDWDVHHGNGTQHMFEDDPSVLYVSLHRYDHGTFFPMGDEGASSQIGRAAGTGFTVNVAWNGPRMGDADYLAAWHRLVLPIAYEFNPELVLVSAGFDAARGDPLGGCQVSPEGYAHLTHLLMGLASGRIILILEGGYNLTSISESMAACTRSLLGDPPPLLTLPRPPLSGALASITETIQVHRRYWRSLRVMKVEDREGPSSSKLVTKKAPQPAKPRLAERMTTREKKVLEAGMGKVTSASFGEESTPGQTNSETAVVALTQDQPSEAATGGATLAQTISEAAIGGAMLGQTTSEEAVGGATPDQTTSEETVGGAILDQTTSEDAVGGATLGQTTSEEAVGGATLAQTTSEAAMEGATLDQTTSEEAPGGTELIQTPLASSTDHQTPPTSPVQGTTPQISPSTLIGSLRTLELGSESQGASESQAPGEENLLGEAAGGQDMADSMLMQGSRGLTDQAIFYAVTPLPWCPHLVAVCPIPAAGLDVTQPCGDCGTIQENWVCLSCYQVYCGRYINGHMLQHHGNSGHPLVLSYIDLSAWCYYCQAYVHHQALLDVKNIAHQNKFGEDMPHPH

[2] = biological target: T2, Protein deacetylase HDAC6; assay: Inhibition of recombinant HDAC6 (unknown origin) using Boc-Lys(acetyl)-AMC as substrate preincubated for 15 mins followed by substrate addition and measured after 2 hrs by fluorescence based microplate reader analysis
[3] = Cmax in CD-1 mouse at 5 mg/kg, iv measured after 0.083 to 24 hrs by LC-MS/MS analysis; assay type: ADME, organism-based; design: dose 5 mg/kg, time 0.083-24 hrs, route iv; conditions: in vivo
[4] = Half life in CD-1 mouse at 5 mg/kg, iv measured after 0.083 to 24 hrs by LC-MS/MS analysis; assay type: ADME, organism-based; conditions: in vivo, time 0.083-24 hrs
[5] = Oral bioavailability in CD-1 mouse at 20 mg/kg measured after 0.083 to 24 hrs by LC-MS/MS analysis; assay type: ADME, organism-based; conditions: in vivo, time 0.083-24 hrs
[6] = Ratio of drug concentration in brain to plasma of CD-1 mouse measured after 0.5 hrs by LC-MS/MS analysis; assay type: ADME; conditions: read-out: BPR
J774.A1 = assay: Inhibition of NLRP3 inflammasome activation in mouse J774.A1 cells assessed as cleavage of pro-caspase 1 to p20 measured at 5 to 20 microM after […] by Western blot analysis; assay type: functional, cell-based; conditions: dose 5-20 µM, DDE = dose-dependent effect
[7] = Acute toxicity in LPS-induced endotoxic shock C57BL/6 mouse model assessed as effect on body weight at 500 mg/kg, po administered as single dose for 15 days; assay type: organism-based; conditions: in vivo, 360 h, time 15 day
Mus musculus [8] = assay: Inhibition of LPS-induced endotoxic shock in C57BL/6 mouse model serum assessed as decrease in IL-1beta level at 20 mg/kg, ip measured after 12 hrs; assay type: functional, organism-based
NCM460 = assay: Cytotoxicity against human NCM460 cells assessed as reduction in cell viability at 100 uM measured after 48 hrs by spectrophotometric analysis; assay type: toxicity, cell-based; conditions: ncm460, 48 h
Mus musculus [9] = assay: Inhibition of LPS-induced endotoxic shock in C57BL/6 mouse model serum assessed as decrease in IL-1beta level at 20 mg/kg, po measured after 12 hrs; assay type: functional, organism-based
[10] = Ratio of drug concentration in brain to plasma of CD-1 mouse measured after 4 hrs by LC-MS/MS analysis; assay type: ADME; conditions: read-out: BPR
[11] = biological target: T2, Protein deacetylase HDAC6; assay: Binding affinity to recombinant HDAC6 (unknown origin) assessed as inhibition constant using Boc-Lys(acetyl)-AMC as substrate preincubated for 1 hr followed by substrate addition and measured after 2 hrs by fluorescence based microplate reader analysis

Histone deacetylase 5, sequence (Q9UQL6 whole entry): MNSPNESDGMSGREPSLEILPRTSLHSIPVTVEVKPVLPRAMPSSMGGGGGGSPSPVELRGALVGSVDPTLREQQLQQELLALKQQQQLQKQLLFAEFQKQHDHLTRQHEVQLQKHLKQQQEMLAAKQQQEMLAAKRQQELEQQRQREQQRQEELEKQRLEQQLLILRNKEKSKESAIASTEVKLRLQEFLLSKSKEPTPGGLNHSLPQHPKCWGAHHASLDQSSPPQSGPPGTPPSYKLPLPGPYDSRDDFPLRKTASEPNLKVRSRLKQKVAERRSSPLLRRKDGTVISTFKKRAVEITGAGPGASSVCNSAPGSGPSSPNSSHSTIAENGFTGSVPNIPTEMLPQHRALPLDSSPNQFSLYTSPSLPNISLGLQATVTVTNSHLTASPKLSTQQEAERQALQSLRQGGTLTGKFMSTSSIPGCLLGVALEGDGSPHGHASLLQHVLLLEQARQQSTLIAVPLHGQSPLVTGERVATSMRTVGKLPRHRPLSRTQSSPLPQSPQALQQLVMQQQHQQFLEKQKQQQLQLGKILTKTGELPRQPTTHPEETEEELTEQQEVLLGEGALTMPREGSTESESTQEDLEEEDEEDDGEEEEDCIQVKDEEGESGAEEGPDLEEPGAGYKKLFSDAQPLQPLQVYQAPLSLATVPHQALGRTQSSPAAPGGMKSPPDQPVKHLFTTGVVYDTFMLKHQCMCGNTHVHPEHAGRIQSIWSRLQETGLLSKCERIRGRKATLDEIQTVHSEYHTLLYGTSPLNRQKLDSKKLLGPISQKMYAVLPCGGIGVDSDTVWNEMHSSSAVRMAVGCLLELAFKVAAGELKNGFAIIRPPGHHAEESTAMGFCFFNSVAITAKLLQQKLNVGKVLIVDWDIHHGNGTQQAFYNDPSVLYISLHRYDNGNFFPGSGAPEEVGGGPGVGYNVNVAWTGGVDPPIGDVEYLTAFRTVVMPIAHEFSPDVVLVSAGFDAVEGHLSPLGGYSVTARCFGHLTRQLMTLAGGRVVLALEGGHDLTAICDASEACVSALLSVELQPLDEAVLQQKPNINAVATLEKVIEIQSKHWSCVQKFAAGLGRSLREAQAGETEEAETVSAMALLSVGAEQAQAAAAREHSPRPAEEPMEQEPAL
Histone deacetylase 1, sequence (Q13547 whole entry): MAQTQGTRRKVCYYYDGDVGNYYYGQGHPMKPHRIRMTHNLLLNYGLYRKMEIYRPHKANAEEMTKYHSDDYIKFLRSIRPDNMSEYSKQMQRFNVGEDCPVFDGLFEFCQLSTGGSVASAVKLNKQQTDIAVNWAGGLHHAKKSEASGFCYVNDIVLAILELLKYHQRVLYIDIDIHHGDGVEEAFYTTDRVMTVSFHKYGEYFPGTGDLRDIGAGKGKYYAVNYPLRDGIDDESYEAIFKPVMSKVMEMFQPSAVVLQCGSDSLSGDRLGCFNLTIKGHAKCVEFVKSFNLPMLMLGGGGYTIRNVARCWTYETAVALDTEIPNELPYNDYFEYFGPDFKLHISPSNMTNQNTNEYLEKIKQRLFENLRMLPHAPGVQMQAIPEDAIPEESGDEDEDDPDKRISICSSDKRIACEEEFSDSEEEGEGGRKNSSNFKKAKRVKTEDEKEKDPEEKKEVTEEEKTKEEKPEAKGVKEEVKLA
Histone deacetylase 4, sequence (P56524 whole entry): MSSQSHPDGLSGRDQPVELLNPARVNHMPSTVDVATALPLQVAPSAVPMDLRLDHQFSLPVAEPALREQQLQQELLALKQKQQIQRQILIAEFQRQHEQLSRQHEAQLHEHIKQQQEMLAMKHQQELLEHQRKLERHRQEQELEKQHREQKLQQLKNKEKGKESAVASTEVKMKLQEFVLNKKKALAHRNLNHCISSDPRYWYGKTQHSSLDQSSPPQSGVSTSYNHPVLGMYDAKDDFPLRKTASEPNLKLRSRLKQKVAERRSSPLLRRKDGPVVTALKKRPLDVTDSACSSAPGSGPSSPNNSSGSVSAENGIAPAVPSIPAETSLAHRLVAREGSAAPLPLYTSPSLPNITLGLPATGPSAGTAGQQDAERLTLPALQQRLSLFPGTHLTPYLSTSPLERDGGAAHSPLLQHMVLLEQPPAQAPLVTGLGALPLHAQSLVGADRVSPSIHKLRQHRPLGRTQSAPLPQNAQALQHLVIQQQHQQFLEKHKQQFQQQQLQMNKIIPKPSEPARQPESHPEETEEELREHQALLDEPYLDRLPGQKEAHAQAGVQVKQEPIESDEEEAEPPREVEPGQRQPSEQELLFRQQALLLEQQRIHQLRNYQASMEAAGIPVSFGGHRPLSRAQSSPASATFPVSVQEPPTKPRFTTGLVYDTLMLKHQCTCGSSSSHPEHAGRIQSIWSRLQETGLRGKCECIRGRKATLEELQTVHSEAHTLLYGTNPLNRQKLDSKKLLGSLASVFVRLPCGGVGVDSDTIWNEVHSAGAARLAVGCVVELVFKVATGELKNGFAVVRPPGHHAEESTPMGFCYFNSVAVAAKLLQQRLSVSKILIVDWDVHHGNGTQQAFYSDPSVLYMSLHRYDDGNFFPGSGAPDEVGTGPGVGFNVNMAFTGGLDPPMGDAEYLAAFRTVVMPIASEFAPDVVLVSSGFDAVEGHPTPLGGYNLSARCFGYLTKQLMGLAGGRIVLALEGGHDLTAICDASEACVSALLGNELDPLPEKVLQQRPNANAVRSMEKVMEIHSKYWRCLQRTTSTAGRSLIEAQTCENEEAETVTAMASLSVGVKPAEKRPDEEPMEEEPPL

Question: With `CCNNC(=O)c1ccc(CN2c3ccccc3C=Cc3ccncc32)cc1` as the compound, how does the IC50 (Histone deacetylase 4) read?
Answer: > 5000 nM

Question: And the IC50 (Histone deacetylase 5)?
Answer: > 5000 nM

Question: What about the IC50 (Histone deacetylase 8) of the same compound?
Answer: > 5000 nM

Question: What about the Ki (Histone deacetylase 1) of the same compound?
Answer: 875 nM

Question: And the IC50 [1]?
Answer: 461 nM

Question: What about the IC50 [2] of the same compound?
Answer: 257 nM

Question: And the Cmax [3]?
Answer: 4600 ng/mL

Question: And the half-life [4]?
Answer: 7.95 h

Question: What about the bioavailability [5] of the same compound?
Answer: 93.4%

Question: And the Kp at 0.5 h [6]?
Answer: 1.45

Question: What about the Activity (J774.A1) of the same compound?
Answer: Dde

Question: What about the Activity [7] of the same compound?
Answer: Non-Toxic

Question: And the Activity (Mus musculus [8])?
Answer: Active

Question: What about the Activity (NCM460) of the same compound?
Answer: Non-Toxic

Question: And the Activity (Mus musculus [9])?
Answer: Active

Question: And the Kp at 4 h [10]?
Answer: 1.51

Question: And the Ki [11]?
Answer: 3 nM
